Data as given in ChEMBL document CHEMBL4334467, “Synthesis and SAR Study of Carbamoyl Pyridone Bicycle Derivatives as Potent Inhibitors of Influenza Cap-dependent Endonuclease” (J Med Chem, 2019).

Columns and labels:
Influenza A virus [1] = format: functional, organism-based
Influenza A virus [2] = assay: microbe, parasite or virus in culture; format: functional, organism-based; conditions: A/WSN/1933(H1N1), MDCK, 72 h

Structure (SMILES) | EC50 (Influenza A virus [1]) [nM] | EC50 (Influenza A virus [2]) [nM]
CC(C)N1CN(C(c2ccccc2)c2ccccc2)n2ccc(=O)c(O)c2C1=O | 80.4 | 165
CC(C)N1C[C@H](C(c2ccccc2)c2ccccc2)n2ccc(=O)c(O)c2C1=O | 89.2 | 155
